Where a name gives a salt, the structure may show the parent alone.
The molecules below were run on mouse partial sciatic nerve ligation model (assay: Mouse partial sciatic nerve ligation model (Seltzer model), von Frey test). Settings: intravenous administration (tail vein), Day 7; Examples 2, 4: 0.1 to 10 mg/kg; 13: 0.01 to 1 mg/kg; 18, 22: 0.1 and 1 mg/kg; 25, 27, 29, 31, 33, 66, 68, 70: 0.1 mg/kg; pregabalin 1 or 3 mg/kg; vs physiological saline group.
Type: in vivo

Structure (SMILES)	analgesic action, total score in the von Frey test
Cl.O=C(O)Cn1ccnc1CCC(=O)N1CCC(N2CCCCC2)CC1 [Example 25, 2-(2-(3-(4-(piperidin-1-yl)piperidin-1-yl)-3-oxopropyl)-1H-imidazol-1-yl)acetic acid hydrochloride]	statistically significant analgesic action
CCN(C)C1CCN(C(=O)CCc2nccn2CC(=O)O)CC1.Cl [Example 18, 2-(2-(3-(4-(ethylmethylamino)piperidin-1-yl)-3-oxopropyl)-1H-imidazol-1-yl)acetic acid hydrochloride]	statistically significant analgesic action
CN(C)C1CCN(C(=O)CCc2nccn2CCC(=O)O)CC1 [Example 66, 3-(2-(3-(4-(dimethylamino)piperidin-1-yl)-3-oxopropyl)-1H-imidazol-1-yl)propanoic acid hydrochloride]	statistically significant analgesic action
CCN(CC)C1CCN(C(=O)CCc2nccn2CC(=O)O)CC1.Cl [Example 22, 2-(2-(3-(4-(diethylamino)piperidin-1-yl)-3-oxopropyl)-1H-imidazol-1-yl)acetic acid hydrochloride]	statistically significant analgesic action
CN(C)[C@H]1CCN(C(=O)CCc2nccn2CC(=O)O)C1.Cl [Example 33, (S)-2-(2-(3-(3-(dimethylamino)pyrrolidin-1-yl)-3-oxopropyl)-1H-imidazol-1-yl)acetic acid hydrochloride]	statistically significant analgesic action
Cl.O=C(O)Cn1ccnc1CCC(=O)N1CCC(N2CCOCC2)CC1 [Example 27, 2-(2-(3-(4-(morpholin-4-yl)piperidin-1-yl)-3-oxopropyl)-1H-imidazol-1-yl)acetic acid hydrochloride]	statistically significant analgesic action
CN(C)[C@H]1CCN(C(=O)CCc2nccn2CCC(=O)O)C1.Cl [Example 70, (S)-3-(2-(3-(3-(dimethylamino)pyrrolidin-1-yl)-3-oxopropyl)-1H-imidazol-1-yl)propanoic acid hydrochloride]	statistically significant analgesic action
CN1CCN(C2CCN(C(=O)CCc3nccn3CC(=O)O)CC2)CC1.Cl [Example 29, 2-(2-(3-(4-(1-methylpiperazin-4-yl)piperidin-1-yl)-3-oxopropyl)-1H-imidazol-1-yl)acetic acid hydrochloride]	statistically significant analgesic action
CN(C)[C@H]1CCCN(C(=O)CCc2nccn2CCC(=O)O)C1.Cl [Example 68, 3-(2-(3-((S)-3-dimethylaminopiperidin-1-yl)-3-oxopropyl)-1H-imidazol-1-yl)propanoic acid hydrochloride]	statistically significant analgesic action

Same assay, conditions: intraventricular administration, 10 μg/site, Day 7; 15, 30 and 60 minutes after administration; vs physiological saline group, p<0.05

Structure (SMILES)	analgesic action, total score in the von Frey test
CC(=O)NCCN(C)C1CCN(C(=O)CCc2nccn2C)CC1 [Example 6, N-(2-(methyl(1-(3-(1-methyl-1H-imidazol-2-yl)propanoyl)piperidin-4-yl)amino)ethyl)acetamide hydrochloride]	statistically significant analgesic action
CN(C)C1CCN(C(=O)CCc2nccn2CCO)CC1 [Example 12, 1-(4-(dimethylamino)piperidin-1-yl)-3-(1-(2-hydroxyethyl)-1H-imidazol-2-yl)propan-1-one hydrochloride]	statistically significant analgesic action
CC(=O)NC1CCN(C(=O)CCc2nccn2C)CC1.Cl [Example 10, N-(1-(3-(1-methyl-1H-imidazol-2-yl)propanoyl)piperidin-4-yl)acetamide hydrochloride]	statistically significant analgesic action

From patent publication US9505740B2, “Cyclic amine derivative and pharmaceutical use thereof” (Toray Industries, Inc., priority 2013, dated 2016)
